Results from paper PMC4776135, “Small Molecule Inhibition of Ligand-Stimulated RAGE-DIAPH1 Signal Transduction” (Scientific Reports, 2016).

Assays:
[1] = test system: phospho/total ERK1/2 in primary murine aortic SMCs; experiment: CML-AGE-stimulated ERK1/2 phosphorylation, Western blot; format: cell-based; conditions: 1 µM compound, 1.5 h pretreatment; CML-AGE 10 µg/ml 20 min; p < 0.05
From the text: (§1) We tested the effects of compounds 1–13 on cellular signaling in primary murine aortic SMCs. […] In primary murine aortic SMCs, we tested the effects of CML-AGE RAGE ligand on Akt and ERK1/2 phosphorylation, as these pathways are seminally linked to fundamental properties of these cells and their responses to stress, such as growth, proliferation, hypertrophy, migration, and survival.
(§2) Figure 3 Effects of compounds 1–13 on RAGE ligand-stimulated phosphorylation of ERK and AKT in primary murine aortic SMCs. Primary murine SMCs were incubated with compounds 1–13 (1 μM) for 1.5 h and then treated with RAGE ligand CML-AGE (10 μg/ml) for 20 minutes. Cells were harvested and total lysates were subjected to Western blotting with antibodies against phospho-ERK and phospho-AKT. Blots were then re-probed with antibodies to total-ERK and total-AKT and relative optical density (ROD) is reported. (a) Quantified levels of phosphorylated/total ERK normalized to total ERK are shown. (b) Quantified levels of phosphorylated/total AKT normalized to total AKT are shown. Assays results shown are representative of three independent experiments. Error bars represent SEM. *indicates p < 0.05 comparing CML-AGE vs. CML-AGE and compound treatment and ^#indicates p < 0.001 comparing CML-AGE vs. serum free medium (SFM) alone vehicle. Above each Western blot, S = serum-free medium and C = CML-AGE; numbers above the blots indicate the compound number.
(§3) Total protein extracts were prepared from primary murine aortic smooth muscle cells using cell lysis buffer (Cell Signaling Technology, Beverly, MA). Equal amounts of protein (30 μg/sample) were subjected to SDS-PAGE (4–12%) followed by electrophoretic transfer to nitrocellulose membranes. Nonspecific binding was blocked by incubation of membranes with BSA (5%) for 1 h. The blot was incubated with one of the following antibodies as the primary antibody for the reaction: anti-phospho-ERK1/2 (P-ERK1/2) IgG, anti-total-ERK1/2 (T-ERK1/2) IgG, anti-phospho-AKT (P-AKT) IgG, and anti-total-AKT (T-AKT) IgG (Cell Signaling Technology). Each primary antibody was used at a dilution of 1:1,000 overnight at 4 °C according to the manufacturer’s instructions. Horseradish peroxidase-conjugated secondary antibodies (1:2,500; Amersham Biosciences) were used to identify sites of binding of each primary antibody.
(§4) Murine vascular SMCs were cultured from the aortas of 10-week old male mice using a modification of the procedure of Travo and Barret[68]. SMCs were cultured following an explant protocol in accordance with institutional guidelines. Wild-type murine aortic vascular SMCs were isolated and used between passages 8 to 12. Human aortic vascular smooth muscle cells were purchased from American Type Culture Collection (ATCC, Manassas, VA) and cultured according to the methods recommended by ATCC. Murine primary aortic endothelial cells were from 6- to 8-week-old wild-type C57BL/6J mice (Jackson Laboratories, Bar Harbor ME) and used under passage 10[69]. THP-1 cells were obtained from the American Type Tissue Collection (ATCC, Manassas VA) and used according to the manufacturer’s instructions.

[2] = test system: Il6 mRNA in primary murine aortic endothelial cells (MAECs); experiment: CML-AGE-mediated upregulation of Il6 mRNA, real-time quantitative PCR; format: cell-based; conditions: 1 µM compound 1.5 h, CML-AGE 10 µg/ml 6 h
Method: First, we tested the effects of RAGE ligand CML-AGE in primary murine aortic endothelial cells (MAECs). […] To assess the effects of the compounds, we pre-treated MAECs for 1.5 h with compounds 1–13 (1 μM).
Figure 5 Effects of compounds 1–13 on RAGE ligand-stimulated inflammatory gene expression in primary murine aortic endothelial cells and human THP-1 cells. Primary murine aortic endothelial cells (a,b) or human THP1 cells (c,d) were subjected to 1.5 h incubation with compounds 1–13 (1 μM) followed by stimulation with CML-AGE (10 μg/ml) for 6 h. Cells were then harvested and gene expression of the inflammatory markers Tnfα and Il6 normalized to β-actin (a,b) or 18s rRNA (c,d) was performed. Assays were performed in triplicate and results are representative of three independent experiments. Error bars represent SEM. *indicates p < 0.05 comparing CML-AGE vs. CML-AGE and compound treatment ^#indicates p < 0.001 comparing CML-AGE vs. SFM vehicle (SFM).
(§5) Total RNA was extracted from cells and tissues using the RNeasy lipid kit (Qiagen, Hilden, Germany). cDNA was synthesized with MultiScribe reverse transcriptase (Applied Biosystems, Foster City, CA). Real-time quantitative PCR was performed using the TaqMan method (50 °C for 2 min, 95 °C for 10 min, and 40 cycles of 95 °C for 15 s and 60 °C for 1 min) with premade primer sets (Applied Biosystems). The relative abundance of transcripts was normalized according to the expression of 18S rRNA (for human cells) or β-actin (for murine cells and tissues) using the ΔΔCt method. Supplementary Table S4 lists the specific primers used in the outlined studies.

[3] = test system: phospho/total Akt in primary murine aortic SMCs; experiment: CML-AGE-stimulated Akt phosphorylation, Western blot; format: cell-based; conditions: 1 µM compound, 1.5 h pretreatment; CML-AGE 10 µg/ml 20 min; p < 0.05
From the text: as §1, §2, §3, §4

Tnfa mRNA in kidney = experiment: CML-AGE infusion in vivo, kidney Tnfa mRNA; design: species or system C57BL/6J mice; conditions: mice; four doses 5 mg/kg i.p. every 12 h; CML-AGE 150 µg i.p.; kidney 4 h later; p < 0.05
Method: Next, it was essential to test the ability of the thirteen compounds to block RAGE ligand-mediated inflammation in vivo. […] To test this concept in the present study, we treated wild-type mice with CML-AGE (150 μg) by intraperitoneal injection after pretreatment with four doses of compounds 1–13 (5 mg/kg per dose, 12 h apart). Thirty minutes after the fourth dose of compound, mice were injected with CML-AGE and sacrificed 4 h later. Kidney tissue was retrieved and subjected to real-time quantitative PCR for detection of transcripts encoding inflammatory mediators.
Figure 6 Effect of compounds 1–13 in vivo. (a,b) C57BL/6J mice were subjected to intraperitoneal administration of four doses of compounds 1–13 (5 mg/kg every 12 h) or equal volumes of vehicle (PBS). Thirty minutes after the final injection, mice were injected with CML-AGE (150 μg) by intraperitoneal administration. Four h later, mice were sacrificed and kidney was retrieved. Real time quantitative PCR was performed for detection of Tnfa (a) and Il6 (b). (c) Assessment of compounds on cardiac functional recovery in diabetes. C57BL/6 mice were rendered type 1 diabetic with streptozotocin. After a mean range of 37–45 days of untreated hyperglycemia, mice were sacrificed and hearts rapidly retrieved for assessment of the efficacy of compounds 1–13 (1 μM) or vehicle, DMSO, on left ventricular developed pressure (LVDP) after ischemia. All hearts were subjected to 30 minutes of global ischemia followed by 60 min of reperfusion. Test compounds were introduced 10 minutes prior to the start of ischemia and continued throughout the reperfusion protocol. In (a–c), N = 5–6 mice per group. Error bars represent SEM. In (a–c), *indicates p < 0.05 vs. respective control, and in (a,b), ^#indicates p < 0.001 comparing CML-AGE vs. PBS treatment.
as §5
Male, wild-type C57BL/6J mice were purchased from the Jackson Laboratories. At age 8 weeks, mice were pretreated with 4 doses of compounds 1–13, 5 mg/kg, by intraperitoneal administration twice daily for a total of two days and four total doses. Control treatment consisted of DMSO diluted into PBS. Thirty minutes after the last dose, CML-AGE (150 μg) was injected by intraperitoneal route. 4 h later, mice were sacrificed and kidney tissue was rapidly retrieved for preparation of mRNA and performance of real time quantitative PCR for the following mRNA transcripts, Tnfa and Il6.

[4] = test system: diabetic mouse heart (ex vivo); experiment: Isolated perfused diabetic heart, ischemia/reperfusion, LVDP recovery; design: species or system C57BL/6 mice; conditions: streptozotocin-diabetic mouse hearts ex vivo; 1 µM compound; 30 min ischemia, 60 min reperfusion; p < 0.05
Method: Figure 6 Effect of compounds 1–13 in vivo. (a,b) C57BL/6J mice were subjected to intraperitoneal administration of four doses of compounds 1–13 (5 mg/kg every 12 h) or equal volumes of vehicle (PBS). Thirty minutes after the final injection, mice were injected with CML-AGE (150 μg) by intraperitoneal administration. Four h later, mice were sacrificed and kidney was retrieved. Real time quantitative PCR was performed for detection of Tnfa (a) and Il6 (b). (c) Assessment of compounds on cardiac functional recovery in diabetes. C57BL/6 mice were rendered type 1 diabetic with streptozotocin. […]
Finally, we tested the effects of these compounds in settings in which RAGE ligands naturally accumulate, particularly the diabetic heart. […] At the end of reperfusion, we measured left ventricular developed pressure (LVDP) in the hearts, a key measure of functional recovery after injury.
Male C57BL/6 mice, age 8–12 weeks, were purchased from The Jackson Laboratory and rendered diabetic by 55 mg/kg by intraperitoneal route of streptozotocin (STZ) (Sigma Aldrich, St. Louis MO) per day in fresh citrate buffer (0.05 mol/l; pH 4.5) for 5 consecutive days. […] Left ventricular developed pressure (LVDP) was measured using a latex balloon in the left ventricle and monitored continuously on an ADI recorder. […]

| Structure (SMILES) | effect on CML-AGE-mediated phospho/total ERK1/2 [1] | effect on CML-AGE-mediated upregulation of Il6 [2] | effect on CML-AGE-mediated stimulation of phospho/total-Akt [3] | effect on CML-AGE-mediated upregulation of Tnfa mRNA in kidney (Tnfa mRNA in kidney) | left ventricular developed pressure (LVDP) functional recovery after ischemia/reperfusion vs DMSO vehicle [4] |
| --- | --- | --- | --- | --- | --- |
| Cc1ccc(S(=O)(=O)N(C)C(F)F)cc1 [Compound 8] | did not significantly affect | significant suppression | did not significantly suppress | significant suppression |  |
| Cc1nc2ccccc2n1CC(O)Cn1c2ccccc2c2ccccc21 (centres unmarked) [Compound 3] | significant suppression | significant suppression | significant suppression | significant suppression | statistically-significantly higher LVDP |
| C=CCOc1ccc2c(C(F)(F)F)cc(=O)oc2c1 [Compound 2] | significant suppression | significant suppression | significant suppression | significant suppression |  |
| COc1cc(SC)ccc1C(=O)Nc1cccc(C)n1 [Compound 1] | significant suppression | significant suppression | significant suppression | significant suppression |  |
| OC(Cn1ccc2ccccc21)Cn1cnc2ccccc21 (centres unmarked) [Compound 4] | significant suppression | significant suppression | significant suppression |  |  |
| COc1cc(NC(C)=O)c(Cl)cc1C(=O)Nc1nccs1 [Compound 6] | did not significantly affect | significant suppression | significant suppression | significant suppression |  |
| COC(=O)c1cc(OC)c(OC)cc1NC(=O)C1Oc2ccccc2OC1C (centres unmarked) [Compound 7] | did not significantly affect | significant suppression | did not significantly suppress |  | statistically-significantly higher LVDP |
| Cl.Oc1cccc(Nc2nc(-c3ccc(F)cc3F)cs2)c1 [Compound 5] | significant suppression | significant suppression | did not significantly suppress | significant suppression |  |
